Among the data in publication PMC11697083 (Nature Communications, 2025) are IC50 values, retold here.

As usually defined, the IC50 is the concentration at which inhibition is half-maximal. Low readings indicate greater potency in that assay, high ones weaker potency in that assay.

Assay type in all cases: biochemical
For assay [1], the target named is T1, Murine KIF18A (Mus musculus, UniProt Q91WD7).
T1 sequence (Q91WD7 1-886): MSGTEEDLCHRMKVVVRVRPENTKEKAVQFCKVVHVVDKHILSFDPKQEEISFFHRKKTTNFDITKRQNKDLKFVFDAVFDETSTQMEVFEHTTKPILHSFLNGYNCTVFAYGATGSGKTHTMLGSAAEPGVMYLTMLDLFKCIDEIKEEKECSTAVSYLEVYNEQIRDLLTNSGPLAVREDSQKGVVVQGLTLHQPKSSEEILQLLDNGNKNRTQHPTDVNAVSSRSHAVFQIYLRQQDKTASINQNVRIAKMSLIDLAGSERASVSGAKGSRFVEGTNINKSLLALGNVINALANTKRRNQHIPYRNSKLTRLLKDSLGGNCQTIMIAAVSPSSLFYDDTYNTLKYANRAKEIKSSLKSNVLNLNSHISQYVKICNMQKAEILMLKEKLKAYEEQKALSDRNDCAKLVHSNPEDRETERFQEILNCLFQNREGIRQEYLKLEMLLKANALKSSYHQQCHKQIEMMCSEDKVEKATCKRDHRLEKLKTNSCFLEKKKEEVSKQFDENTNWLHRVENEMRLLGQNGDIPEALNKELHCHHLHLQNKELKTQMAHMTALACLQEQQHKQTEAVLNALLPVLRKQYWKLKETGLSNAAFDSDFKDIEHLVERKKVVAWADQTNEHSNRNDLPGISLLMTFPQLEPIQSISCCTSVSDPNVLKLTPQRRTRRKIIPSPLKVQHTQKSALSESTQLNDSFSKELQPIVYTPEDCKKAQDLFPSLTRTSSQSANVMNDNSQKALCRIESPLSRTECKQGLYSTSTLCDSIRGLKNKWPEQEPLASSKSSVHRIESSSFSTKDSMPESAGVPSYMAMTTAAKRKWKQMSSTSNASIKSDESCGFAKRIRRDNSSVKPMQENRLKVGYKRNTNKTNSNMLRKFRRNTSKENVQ
Description: ADP-Glo ATPase assay. A general note: ADP-Glo first removes unused ATP, then detects ADP through luciferase.

The target of assay [2] is T2, KIF19 (Homo sapiens, UniProt Q2TAC6).
T2 sequence (Q2TAC6 1-998): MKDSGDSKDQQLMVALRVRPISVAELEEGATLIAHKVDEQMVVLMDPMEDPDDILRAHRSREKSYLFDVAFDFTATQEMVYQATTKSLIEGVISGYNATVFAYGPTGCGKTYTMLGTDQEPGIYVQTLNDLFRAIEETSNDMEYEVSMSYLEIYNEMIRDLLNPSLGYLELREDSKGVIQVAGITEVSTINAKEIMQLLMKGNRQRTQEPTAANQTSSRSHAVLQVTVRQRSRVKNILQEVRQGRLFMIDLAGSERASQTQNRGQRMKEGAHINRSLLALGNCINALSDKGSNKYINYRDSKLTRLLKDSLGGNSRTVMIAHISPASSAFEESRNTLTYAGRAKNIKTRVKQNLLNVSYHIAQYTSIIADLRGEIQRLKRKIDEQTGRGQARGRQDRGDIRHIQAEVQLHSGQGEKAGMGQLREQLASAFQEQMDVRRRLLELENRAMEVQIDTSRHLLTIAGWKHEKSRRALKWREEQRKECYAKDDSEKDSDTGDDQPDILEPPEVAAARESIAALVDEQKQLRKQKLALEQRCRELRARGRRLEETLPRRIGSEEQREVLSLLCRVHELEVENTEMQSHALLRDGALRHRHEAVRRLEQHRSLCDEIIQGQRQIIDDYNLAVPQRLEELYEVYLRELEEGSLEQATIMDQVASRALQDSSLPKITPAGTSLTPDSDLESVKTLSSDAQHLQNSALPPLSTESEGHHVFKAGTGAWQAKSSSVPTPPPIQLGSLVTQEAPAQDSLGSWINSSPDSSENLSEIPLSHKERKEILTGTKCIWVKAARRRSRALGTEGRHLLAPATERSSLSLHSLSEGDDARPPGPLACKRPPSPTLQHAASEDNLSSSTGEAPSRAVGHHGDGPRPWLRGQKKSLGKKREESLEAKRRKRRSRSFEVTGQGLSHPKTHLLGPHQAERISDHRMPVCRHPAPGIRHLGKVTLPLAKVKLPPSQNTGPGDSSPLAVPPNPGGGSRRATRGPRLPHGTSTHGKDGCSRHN
Description: ADP-Glo ATPase assay.

Assay [3] concerns the target T3, KIF18A (Homo sapiens, UniProt Q8NI77).
T3 sequence (Q8NI77 1-374): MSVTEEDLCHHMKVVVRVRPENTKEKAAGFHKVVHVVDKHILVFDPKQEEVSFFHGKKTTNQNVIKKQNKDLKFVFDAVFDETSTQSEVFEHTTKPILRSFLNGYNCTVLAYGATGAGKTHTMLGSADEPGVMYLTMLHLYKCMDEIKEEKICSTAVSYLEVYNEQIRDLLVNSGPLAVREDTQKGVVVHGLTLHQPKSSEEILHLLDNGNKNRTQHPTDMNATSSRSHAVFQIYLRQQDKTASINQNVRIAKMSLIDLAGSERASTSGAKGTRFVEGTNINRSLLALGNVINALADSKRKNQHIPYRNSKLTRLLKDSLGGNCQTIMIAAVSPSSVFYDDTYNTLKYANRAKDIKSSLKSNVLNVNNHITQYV
As to the kind of experiment: ADP-Glo ATPase assay at varied ATP.

With `CC(C)(C)NS(=O)(=O)c1cccc(C(=O)N2CC3(CCC4(CC4)CC3)c3cc(NS(C)(=O)=O)ccc32)c1` [compound 11, N-(tert-butyl)-3-(5”-(methylsulfonamido)dispiro[cyclopropane-1,1’-cyclohexane-4’,3”-indoline]-1”-carbonyl)benzenesulfonamide], the IC50 amounted to 8.8 nM in assay [1] and 280 nM in assay [2].

`O=[N+]([O-])c1cc(Cl)ccc1S(=O)(=O)c1ccccc1` [BTB-1]: 2200 nM corresponded to half-maximal inhibition in assay [3] (IC50).
